Assay results published in patent US5556840A, “2',5'-phosphorothioate oligoadenylates as anitiviral agents” (Temple University - Of The Commonwealth System of Higher …, priority 1994, dated 1996).
“Also recorded” adds a separate entry of the source. Like-named read-outs stand apart in the source and are kept apart here.

Experiments:
RNase L [1] = test: Core-cellulose assay: activation of partially-purified RNase L to hydrolyze poly(U)-3'-[32P]pCp; type: biochemical, mouse; conditions: poly(U)-3'-[32P]pCp substrate
Procedure: FIG. 1B represents the results of a core-cellulose assay indicating the ability of the 2',5'-phosphorothioate adenylate trimer cores and 5'-monophosphates to activate partially-purified RNase L from L929 cell extracts to hydrolyze the substrate polY(U)-3'-[^32 P]pCp. Activation of RNase L was determined by conversion of poly (U )-3'-[^32 P]pCp to acid-soluble fragments. 100% represents 30,000 cpm of labelled poly(U)-3'-[^32 P]pCp bound to glass fiber filters. The curves are labelled in the same manner as FIG. 1A.
The 2',5'-phosphorothioate cores, with one exception, have the correct stereoconfiguration to activate RNase L. The activation of partially-purified RNase L by the 2',5'-phosphorothioates was measured according to the core-cellulose assay of Silverman, Analyt. Biochem. 144:450-460 (1985) which relies on hydrolysis of the substrate poly(U)-3-[^32 P]pCp. […] (FIG. 1B) The order of activation of the trimer cores and the corresponding 5'-monophosphates is: RpRp>SpRp>RpSp (FIG. 1B).

[2] = tested on: tobacco mosaic virus (TMV); test: TMV replication in intact Nicotiana glutinosa plants (local lesions); type: in vivo; conditions: 2 × 10^-5 M in infecting solution; 48 hr after infection; half-leaves of N. glutinosa
Procedure: Carborundum (400 mesh) was sprinkled lightly onto leaves. Solutions containing 0.2 micrograms per ml of TMV and 2×10^-5 M 2',5'-phosphorothioate oligoadenylate in phosphate buffer were applied onto half-leaves of N. glutinosa with either a gloved finger or with a pipettor. The remaining half-leaves were controls (inoculated with the buffer solution containing TMV, but no active compound). The infection was allowed to proceed 48 h under continuous illumination of about 1500 Lx at which time local virus lesions appeared. Inhibition of TMV replication was calculated as the percent of local lesions produced in 2',5'-phosphorothioate oligoadenylate-treated half-leaves compared to control half-leaves.
^4 Inhibition of TMV replication was detected 48 hr after infection
and was calculated as the percent of local lesions produced in treated
halfleaves of N. glutinosa compared to control halfleaves.

phosphodiesterases = test: Metabolic stability, general statements; type: in vitro ADME
RNase L [3] = test: rRNA cleavage assay using L929 cell extracts (28S and 18S rRNA); type: biochemical, mouse; conditions: L929 cell extracts; '>' = no activation at that concentration
Procedure: Activation of RNase L by 2',5'-phosphorothioate adenylate trimer cores and their 5'-monophosphates was also measured in an rRNA cleavage assay using L929 cell extracts.
The corresponding 5'-monophosphates pARp ARp A, pASp ARp A (at 10^-8 M) and pARp ASp A (at 10^-7 M) activated RNase L to cleave 28S and 18S rRNA.

[4] = tested on: HIV reverse transcriptase; test: HIV reverse transcriptase activity; type: biochemical, HIV (HTLV-IIIB); conditions: 200 uM; for Reverse Transcriptase Activity: control 187×10^3 cpm (reactions 1-4), 273×10^3 cpm (reactions 5-13)
Procedure: HIV reverse transcriptase (RNA-dependent DNA nucleotidyl-transferase) activity was assayed by a modification of the procedure of Poiesz et al. (Poiesz, B. J., Ruscetti , F. W., Gazdar, A. F., Bunn, P. S., Minna, J. D., and Gallo, R. C., Proc. Natl. Acad. Sci. U.S.A. 77: 7415-7419 (1980)).
Cultured H-9 cells are grown at 10^6 cells/ml in RPMI-1640 medium and 20% heat-inactivated fetal calf serum. Cell suspensions are centrifuged (1000×g, 10 min.) and the supernatant is removed. Virus particles are precipitated from this cell-free supernatant to which 0.3 ml of 4M NaCl and 3.6 ml of 30% (weight/volume) polyethylene glycol are added. The suspension is placed on ice for 2 hr following centrifugation at 15,000×g for 30 min at 0° C. The precipitate is resuspended in 200 microliters of 50% glycerol (vol./vol.)/25 mM Tris-HCl (pH 7.5)/5 mM dithiothreitol/50 mM KCl/0.025% Triton X-100. Virus particles are lysed by the addition of 100 microliters of 0.9% Triton X-100/1.5M KCl. Reverse transcriptase assays are performed at 37° C. for 1 hr with 10 microliters of the lysed virus solution in a final reaction volume of 100 microliters containing: 40 mM Tris-HCl (pH 7.8), 4 mM dithiothreitol, 45 mM KCl and 2.5 micrograms of template primer [poly(A)-dT15, 0.5 micrograms/microliter] (with a signal Mg^++ concentration of 10 mM). At this time, 10 microliters of the 2',5'-phosphorothioate oligoadenylate is added to a final concentration of 200 micromolar. Reaction mixtures also contain 4 micromoles of [^3 H]dTTP. Reactions are stopped by the addition of cold 5% trichloroacetic acid and filtered through nitrocellulose discs. The discs are dried and the radioactivity bound to the discs is determined. Reverse transcriptase activity is expressed as the percent relative to a control.
The compounds were assayed in the above manner in two sets, each set having a separate set of controls. The compounds of reactions 1-4 were assayed against control #1, which was 187×10^3 cpm. The compounds used in reactions 5-13 were assayed against control #2, which was 273×10^3 cpm.

SVPD = test: Hydrolysis by SVPD (snake venom phosphodiesterase); type: in vitro ADME
Procedure: It is known that the enzyme SVPD preferentially cleaves Rp-3',5'- or 2',5'-phosphorothioate linkages from the 2'/3'-terminus. Nelson et al, J. Org. Chem. 49:2314-2317 (1984); Eppstein et al, J. Biol. Chem. 261:5999-6003 (1986); Lee et al, Biochemistry 24:551-555 (1985). SVPD hydrolysis of the chemically synthesized dimer core ARp A yielded adenosine and AMPS in a molar ratio of 1:1, respectively; the half-life was 3 hours (Table 3).
(§1) The metabolic stability of the 2,5'-phosphorothioate dimer and trimer cores is markedly greater than authentic 2-5A. The rate of hydrolysis of the trimer cores by the 3'-exonuclease SVPD is, in order of decreasing stability: ASp ARp A>ARp ARp A>>>A3. […] The 3'->'5'direction of stepwise cleavage by SVPD is blocked by an Sp configuration, preventing cleavage of the upstream adjacent phosphorothioate linkage. […] With both SVPD and 2'-PDE, the dimer cores (either ARp A or ASp A) accumulate following hydrolysis of the ARp ARp A, ASp ARp A and ARp ASp A trimer cores. Hydrolysis of the 2-5A molecule by SVPD and 2'-PDE proceeds from the 2'/3'-terminus. Therefore, introduction of the phosphorothioate group into the trimer core results in the accumulation of the ARp A or ASp A dimer cores from the 5'-terminus and the accumulation of AMPS from the 2'/3'-terminus (Table 3). With authentic A3, there is no detectable accumulation of A2 following hydrolysis by SVPD or 2'-PDE.

RNase L [5] = test: Activation or inhibition of RNase L, general statements without assay named; type: biochemical
[6] = tested on: 2'-phosphodiesterase (2'-PDE), L cell extract; test: Hydrolysis by 2'-phosphodiesterase in L cell extract; type: in vitro ADME
Excerpt: The four 2,5-phosphorothioate adenylate trimer cores were further characterized by hydrolysis with the enzyme 2'-phosphodiesterase ("2'-PDE"), an exoribonuclease found in L cell extract The enzyme cleaves from the 2'/3'-terminus.
as §1

serum phosphodiesterases = test: Hydrolysis by serum phosphodiesterases

| Substance | activation of RNase L, core-cellulose assay (result in words) (RNase L [1]) | Percent TMV Inhibition [2] [%] | metabolic stability (result in words) (phosphodiesterases) | concentration at which RNase L was activated to cleave 28S and 18S rRNA (RNase L [3]) | Percent Inhibition of HIV reverse transcriptase [4] [%] | Reverse Transcriptase Activity [4] | hydrolysis by SVPD (result in words) (SVPD) | hydrolysis by SVPD (result in words) (SVPD; listed as ARp ASp A) | effect on RNase L activation (result in words) (RNase L [5]) | half life, hydrolysis by L cell extract [6] [days] | hydrolysis by serum phosphodiesterases (result in words) (serum phosphodiesterases) |
| --- | --- | --- | --- | --- | --- | --- | --- | --- | --- | --- | --- |
| 5'-O-Phosphoryl-(Rp)-thioadenylyl-(2'-5')-(Rp)-thioadenylyl-(2'-5')-adenosine [pARp ARp A] | most efficient activator of RNase L | 75 | metabolically unstable and is readily attacked by phosphodiesterases | 10^-8 M | 25 | 144 10^3 cpm | – | – | – | – | – |
| (Rp)-P-Thioadenylyl-(2'-5')-(Sp)-P-thiodenylyl-(2'-5')-adenosine [Compound 10A] | – | 70 | metabolicly stable | > 10^-4 M | 10 | 247 10^3 cpm | not substrates for SVPD; also recorded: not cleaved | not substrates of SVPD | activates RNase L | 20 | not cleaved |
